Results on five compounds are retold here after ChEMBL document CHEMBL4266048, “Halogenated Meroditerpenoids from a South Pacific Collection of the Red Alga Callophycus serratus” (J Nat Prod, 2018).

This assay concerns HL-60. Nature of the assay: Cytotoxicity against human HL60 cells after 48 hrs by MTT assay. Type of assay: functional, cell-based. The note with it: for IC50: HL-60, 48 h. Background: Tetrazolium assays rely on reduction of a dye to a coloured formazan, in cell work by metabolically active cells.

SMILES strings stand for the structures. Calls of active or inactive are those of the source. The calls are words filed in the database; no cut-off is given here.

Broadly, the IC50 is the concentration that inhibits the measured activity by half.

With `C=C1CC=CC(C)(C)[C@H]1CC[C@@]1(C)[C@H](Cc2cc(Br)ccc2O)/C(=C/I)CC[C@@H]1Br`, the result was inactive.
In turn, `CC[C@H](/C=C(/C)[C@@H]1C[C@@H](OC)C[C@H](O)C(C)(C)[C@@]2(O)O[C@@H](C[C@@H](OC)[C@H](O)C(=O)O1)C[C@@H](OC)[C@H]2O)CO` displayed an IC50 of 10 µM.
In turn, `C=C1CC[C@@H](Br)C(C)(C)[C@H]1CC[C@@]1(C)[C@H](Cc2cc(Br)ccc2O)/C(=C/I)CC[C@@H]1Br` gave an IC50 of 5.1 µM.
Same read-out and setting: the figure for `CC1=C2Cc3cc(ccc3O)C(=O)O[C@H](C(C)(C)Br)CC[C@](C)(O)[C@H](Br)CC[C@]2(C)[C@@H](Br)CC1` is 6.2 µM; for `CC1=C2Cc3cc(ccc3O)C(=O)OC(C)(C)[C@H](Br)CC[C@]3(C)O[C@H]3C[C@]2(C)[C@@H](Br)CC1` [BROMOPHYCOLIDE T] it is 6 µM.
